# Measurements published in ChEMBL document CHEMBL1201862, “PubChem BioAssay data set” (2004).
# Active and inactive are the calls of the source.
# Columns and labels:
# [1] = target: T1, Sentrin-specific protease 8 (Homo sapiens, UniProt Q96LD8); test: inhibition of sentrin protease 8 – biochemical, luminescence, set 2, SAR follow-up (AID 588601); assay type: functional
# T1 sequence (Q96LD8 whole entry): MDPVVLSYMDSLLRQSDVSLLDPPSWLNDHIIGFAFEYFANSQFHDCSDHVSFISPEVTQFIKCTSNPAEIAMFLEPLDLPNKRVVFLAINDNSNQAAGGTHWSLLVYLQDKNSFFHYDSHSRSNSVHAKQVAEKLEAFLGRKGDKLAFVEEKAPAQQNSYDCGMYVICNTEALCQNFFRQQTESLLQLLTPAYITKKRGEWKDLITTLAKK
# [2] = target: T1, Sentrin-specific protease 8; test: inhibition of human SENP8 cleavage activity – biochemical, luminescence, SAR follow-up (AID 504501); assay type: functional
# [3] = Trypanosoma cruzi growth suppression in host cells – NIH3T3 host cells, beta-gal luminescence, confirmation (AID 2044); assay type: functional, cell-based;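 note: intracellular parasites grown in NIH/3T3 mouse fibroblasts as host cells; luminescent beta-galactosidase reporter signal from transgenic T. cruzi replicating inside host cells; inhibitors lower the luminescence signal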
# [4] = target: T2, Sentrin-specific protease 7 (Homo sapiens, UniProt Q9BQF6); test: inhibition of human SENP7 cleavage activity – biochemical, luminescence, set 2, SAR follow-up (AID 588600); assay type: functional
# T2 sequence (Q9BQF6 whole entry): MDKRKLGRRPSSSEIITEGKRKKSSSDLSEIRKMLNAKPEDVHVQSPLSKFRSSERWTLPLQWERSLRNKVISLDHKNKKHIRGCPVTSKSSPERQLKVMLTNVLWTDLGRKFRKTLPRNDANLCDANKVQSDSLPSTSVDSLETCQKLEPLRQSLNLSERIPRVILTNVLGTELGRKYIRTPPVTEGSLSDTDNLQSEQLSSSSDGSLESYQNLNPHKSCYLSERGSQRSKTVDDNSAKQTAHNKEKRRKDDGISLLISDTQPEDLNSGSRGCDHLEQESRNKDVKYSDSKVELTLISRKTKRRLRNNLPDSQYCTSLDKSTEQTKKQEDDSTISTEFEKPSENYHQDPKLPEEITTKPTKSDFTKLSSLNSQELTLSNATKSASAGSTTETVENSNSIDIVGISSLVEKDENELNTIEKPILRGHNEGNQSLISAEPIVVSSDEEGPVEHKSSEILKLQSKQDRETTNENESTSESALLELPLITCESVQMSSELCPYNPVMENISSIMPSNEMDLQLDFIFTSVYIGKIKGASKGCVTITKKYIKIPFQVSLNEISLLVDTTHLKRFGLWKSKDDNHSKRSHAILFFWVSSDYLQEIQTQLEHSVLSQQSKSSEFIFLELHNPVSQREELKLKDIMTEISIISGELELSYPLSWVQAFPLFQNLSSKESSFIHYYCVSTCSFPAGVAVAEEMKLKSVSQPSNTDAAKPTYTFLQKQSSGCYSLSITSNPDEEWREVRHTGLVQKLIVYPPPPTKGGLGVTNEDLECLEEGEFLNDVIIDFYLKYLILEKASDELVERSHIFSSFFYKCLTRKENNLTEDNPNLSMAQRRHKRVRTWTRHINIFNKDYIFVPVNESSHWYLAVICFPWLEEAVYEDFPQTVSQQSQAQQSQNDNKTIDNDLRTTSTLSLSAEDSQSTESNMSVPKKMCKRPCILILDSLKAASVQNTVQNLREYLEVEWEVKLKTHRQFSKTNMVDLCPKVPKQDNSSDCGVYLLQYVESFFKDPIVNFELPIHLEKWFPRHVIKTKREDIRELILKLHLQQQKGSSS
# Caspase-3 [5] = target: T3, Caspase-3 (Homo sapiens, UniProt P42574); test: SAR Analysis of small molecule inhibitors of Sentrin-specific proteases (SENPs) using a Caspase-3 Selectivity assay. [Related pubchem assays (depositor defined):AID2540, AID2599, AID434973, AID489001]; assay type: functional
# T3 sequence (P42574 whole entry): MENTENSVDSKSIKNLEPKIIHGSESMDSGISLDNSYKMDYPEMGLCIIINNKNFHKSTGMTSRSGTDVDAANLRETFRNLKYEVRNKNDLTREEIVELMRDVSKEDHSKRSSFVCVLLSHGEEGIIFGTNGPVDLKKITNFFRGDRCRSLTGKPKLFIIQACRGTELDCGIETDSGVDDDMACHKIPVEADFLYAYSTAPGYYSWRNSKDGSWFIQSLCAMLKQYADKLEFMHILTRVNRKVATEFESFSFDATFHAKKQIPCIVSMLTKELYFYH
# [6] = NIH3T3 cell viability loss – ATP luminescence, mouse fibroblasts, counter-screen, dose response (AID 2010); assay type: functional, cell-based;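 note: cells exposed to compound for about 90 hours before reading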
# Caspase-3 [7] = target: T3, Caspase-3; test: inhibition of recombinant caspase-3 activity – biochemical, luminescence, set 2, selectivity assay for SENP protease inhibitor project, SAR follow-up (AID 588599); assay type: functional
# [8] = target: T4, Sentrin-specific protease 6 (Homo sapiens, UniProt Q9GZR1); test: SAR Analysis of small molecule inhibitors of Sentrin-specific protease 6 (SENP6) using a Luminescent assay. [Related pubchem assays (depositor defined):AID2582, AID2599]; assay type: functional
# T4 sequence (Q9GZR1 whole entry): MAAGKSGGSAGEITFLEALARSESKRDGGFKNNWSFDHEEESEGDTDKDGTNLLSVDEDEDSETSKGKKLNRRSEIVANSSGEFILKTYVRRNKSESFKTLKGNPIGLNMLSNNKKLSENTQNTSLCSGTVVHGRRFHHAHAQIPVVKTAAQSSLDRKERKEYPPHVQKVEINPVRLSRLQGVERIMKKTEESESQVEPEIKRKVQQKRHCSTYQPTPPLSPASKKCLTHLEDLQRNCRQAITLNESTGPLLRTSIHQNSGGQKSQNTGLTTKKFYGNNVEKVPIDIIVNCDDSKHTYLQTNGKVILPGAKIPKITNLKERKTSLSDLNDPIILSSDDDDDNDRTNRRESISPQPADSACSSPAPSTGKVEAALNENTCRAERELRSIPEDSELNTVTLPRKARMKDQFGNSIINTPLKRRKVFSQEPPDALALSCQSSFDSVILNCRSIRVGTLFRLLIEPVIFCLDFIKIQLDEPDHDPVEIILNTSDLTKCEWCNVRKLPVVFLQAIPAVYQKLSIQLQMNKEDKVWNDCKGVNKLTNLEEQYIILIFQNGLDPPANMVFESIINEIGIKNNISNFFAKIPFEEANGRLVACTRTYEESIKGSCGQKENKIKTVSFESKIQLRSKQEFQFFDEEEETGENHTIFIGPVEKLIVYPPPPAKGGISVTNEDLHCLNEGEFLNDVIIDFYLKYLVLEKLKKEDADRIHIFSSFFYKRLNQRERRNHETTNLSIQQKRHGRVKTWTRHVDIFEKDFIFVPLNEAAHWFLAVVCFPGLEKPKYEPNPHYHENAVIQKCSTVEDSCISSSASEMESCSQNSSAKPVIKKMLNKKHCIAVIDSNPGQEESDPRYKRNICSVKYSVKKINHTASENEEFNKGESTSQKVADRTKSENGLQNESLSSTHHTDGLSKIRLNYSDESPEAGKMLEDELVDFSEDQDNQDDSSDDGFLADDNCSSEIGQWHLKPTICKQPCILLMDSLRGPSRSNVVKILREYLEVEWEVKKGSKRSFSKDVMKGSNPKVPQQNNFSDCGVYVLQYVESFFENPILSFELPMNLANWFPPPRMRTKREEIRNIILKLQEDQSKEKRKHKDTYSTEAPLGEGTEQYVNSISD
# [9] = target: T2, Sentrin-specific protease 7; test: inhibition of human SENP7 cleavage activity – biochemical, luminescence, SAR follow-up (AID 504497); assay type: functional
# [10] = target: T4, Sentrin-specific protease 6; test: inhibition of human SENP6 catalytic domain – biochemical, luminescence, set 2, SAR follow-up (AID 588598); assay type: functional
# Aurora kinase A = Aurora kinase A (Homo sapiens, UniProt O14965); assay type: functional;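 note: value from the Navigating the Kinome kinase panel profiling, panel entry STK6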
# Aurora kinase A, sequence (O14965 whole entry): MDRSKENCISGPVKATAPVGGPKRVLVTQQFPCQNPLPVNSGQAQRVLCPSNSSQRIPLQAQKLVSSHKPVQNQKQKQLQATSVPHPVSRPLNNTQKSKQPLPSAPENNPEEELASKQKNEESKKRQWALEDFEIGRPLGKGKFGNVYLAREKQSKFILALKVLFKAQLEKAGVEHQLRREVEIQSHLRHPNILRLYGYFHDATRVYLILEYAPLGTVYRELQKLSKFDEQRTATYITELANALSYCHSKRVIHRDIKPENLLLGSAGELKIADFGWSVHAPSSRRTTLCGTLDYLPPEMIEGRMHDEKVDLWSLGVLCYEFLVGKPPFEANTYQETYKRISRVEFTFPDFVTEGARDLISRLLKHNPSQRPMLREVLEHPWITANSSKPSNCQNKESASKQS
# Aurora kinase B = Aurora kinase B (Homo sapiens, UniProt Q96GD4); assay type: functional
# Aurora kinase B, sequence (Q96GD4 whole entry): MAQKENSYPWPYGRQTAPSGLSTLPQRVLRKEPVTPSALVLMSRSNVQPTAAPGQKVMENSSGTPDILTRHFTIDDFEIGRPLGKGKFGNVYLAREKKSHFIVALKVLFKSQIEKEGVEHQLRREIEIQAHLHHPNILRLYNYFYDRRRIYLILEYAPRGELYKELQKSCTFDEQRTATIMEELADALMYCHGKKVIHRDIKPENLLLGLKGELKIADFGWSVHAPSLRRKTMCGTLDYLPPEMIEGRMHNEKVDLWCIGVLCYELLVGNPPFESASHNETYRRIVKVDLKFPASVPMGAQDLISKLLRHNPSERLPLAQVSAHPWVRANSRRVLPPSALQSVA
# [11] = target: T5, Apoptotic protease-activating factor 1 (Homo sapiens, UniProt O14727); test: SAR analysis of small molecule Activators of Apaf-1 in a Fluorescent assay.; assay type: functional; conditions: read-out: EC50_Mean;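 note: caspase-3 cleavage of fluorogenic Rh110 DEVD substrate downstream of apoptosome activation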
# T5 sequence (O14727 whole entry): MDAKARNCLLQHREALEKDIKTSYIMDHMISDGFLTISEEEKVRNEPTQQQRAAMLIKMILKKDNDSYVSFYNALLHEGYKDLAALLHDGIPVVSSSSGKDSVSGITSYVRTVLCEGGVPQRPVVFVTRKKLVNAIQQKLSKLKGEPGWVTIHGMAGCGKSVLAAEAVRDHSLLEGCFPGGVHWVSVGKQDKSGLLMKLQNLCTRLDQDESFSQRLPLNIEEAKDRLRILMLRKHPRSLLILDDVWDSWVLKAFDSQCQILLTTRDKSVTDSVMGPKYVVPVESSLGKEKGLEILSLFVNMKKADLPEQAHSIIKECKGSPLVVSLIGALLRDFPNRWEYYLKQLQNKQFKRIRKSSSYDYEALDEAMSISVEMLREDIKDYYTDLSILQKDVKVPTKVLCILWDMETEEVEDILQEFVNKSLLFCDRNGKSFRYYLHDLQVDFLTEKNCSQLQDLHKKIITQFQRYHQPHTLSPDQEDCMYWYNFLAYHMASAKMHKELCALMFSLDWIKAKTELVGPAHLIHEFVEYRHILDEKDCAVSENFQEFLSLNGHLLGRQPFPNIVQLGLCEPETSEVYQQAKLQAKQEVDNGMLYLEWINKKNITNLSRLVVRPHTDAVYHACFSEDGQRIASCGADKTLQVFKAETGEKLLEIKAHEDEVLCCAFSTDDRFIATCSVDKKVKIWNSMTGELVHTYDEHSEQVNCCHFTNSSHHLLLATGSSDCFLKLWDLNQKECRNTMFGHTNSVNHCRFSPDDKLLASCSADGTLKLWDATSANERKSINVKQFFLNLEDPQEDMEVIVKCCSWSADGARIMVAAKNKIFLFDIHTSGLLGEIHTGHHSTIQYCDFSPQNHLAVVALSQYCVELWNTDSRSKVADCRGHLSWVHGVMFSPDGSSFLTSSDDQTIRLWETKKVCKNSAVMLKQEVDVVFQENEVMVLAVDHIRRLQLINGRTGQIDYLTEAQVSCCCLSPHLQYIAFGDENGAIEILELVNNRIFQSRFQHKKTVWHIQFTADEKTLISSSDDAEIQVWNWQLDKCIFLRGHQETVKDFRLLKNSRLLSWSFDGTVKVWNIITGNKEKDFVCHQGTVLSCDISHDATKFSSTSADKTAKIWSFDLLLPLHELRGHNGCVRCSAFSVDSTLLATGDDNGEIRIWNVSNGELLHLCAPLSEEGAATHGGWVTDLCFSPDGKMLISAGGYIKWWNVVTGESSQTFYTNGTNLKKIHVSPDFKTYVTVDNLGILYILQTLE
# SN12K1 = test: cells; assay type: functional; conditions: Homo sapiens
# P388/ADR = test: cells; assay type: functional; conditions: Mus musculus
# P388 = test: cells; assay type: functional; conditions: Mus musculus
structure (smiles),measurement,setting,value
O=C(Nc1nc2ccc(Cl)cc2s1)C1CC1,IC50,[1],5.97 µM (active)
same,IC50,[2],> 99 µM (inactive)
same,EC50,[3],0.119 µM (active)
same,IC50,[4],7.46 µM (active)
same,IC50,Caspase-3 [5],25 µM (active)
same,EC50,[6],> 16 µM (not active)
same,IC50,Caspase-3 [7],28.9 µM (active)
same,IC50,[8],> 99 µM (inactive)
same,IC50,[9],5.9 µM (active)
same,IC50,[10],24.6 µM (active)
Cc1ccc(N2CC(NC(=O)C(=O)c3c(C)[nH]c4ccccc34)CC2=O)cc1 (configuration not stated),IC50,[1],> 99 µM (inactive)
same,IC50,[4],> 99 µM (inactive)
same,IC50,Caspase-3 [7],> 99 µM (inactive)
same,IC50,[10],> 99 µM (inactive)
CCCCc1ccc2nc(NC(=O)c3sccc3C)sc2c1,IC50,[2],0.672 µM (active)
same,IC50,Caspase-3 [5],0.541 µM (active)
same,IC50,[8],0.742 µM (active)
same,IC50,[9],0.854 µM (active)
COCCOC1CCC(n2nc(-c3ccc(Nc4nc5cc(Br)cc(C)c5o4)cc3)c3c(N)ncnc32)CC1 (configuration not stated),Ki,Aurora kinase A,0.00398 µM (active)
same,Ki,Aurora kinase B,0.00316 µM (active)
CC(C)(C)c1ccc(C(=O)NC(CCc2ccccc2)CC(=O)O)cc1 (configuration not stated),EC50,[11],> 100 µM (inactive)
COC1OCC(O)C(NC(=O)N(C)N=O)C1O (configuration not stated),GI50,SN12K1,> 100 µM (inactive)
same,GI50,P388/ADR,> 100 µM (inactive)
same,GI50,P388,> 100 µM (inactive)
COC(=O)C[C@](O)(CCC(C)(C)O)C(=O)O[C@@H]1C(OC)=C[C@]23CCCN2CCc2cc4c(cc2[C@H]13)OCO4 [HARRINGTONINE],GI50,SN12K1,0.0661 µM (active)
same,GI50,P388/ADR,0.738 µM (active)
same,GI50,P388,0.0252 µM (active)
